Results on three compounds are retold here after ChEMBL document CHEMBL1152560, “Substituted 2-arylbenzothiazoles as kinase inhibitors: hit-to-lead optimization” (Bioorg Med Chem, 2009).

In test [1] the target is Serine/threonine-protein kinase PAK 1 (Homo sapiens) (UniProt Q13153). The test can be described thus: Residual activity of PAK1 at 0.1 uM by microplate scintillation counting.
Test [2] concerns the target Serine/threonine-protein kinase MARK1 (Homo sapiens) (UniProt Q9P0L2). The test can be described thus: Residual activity of MARK1 at 1 uM by microplate scintillation counting.
Test [3] addresses Calcium/calmodulin-dependent protein kinase kinase 2 (Homo sapiens) (UniProt Q96RR4). The test can be described thus: Residual activity of CAMKK2 at 10 uM by microplate scintillation counting.
In test [4] the target is Receptor tyrosine-protein kinase erbB-2 (Homo sapiens, UniProt P04626). The test can be described thus: Residual activity of ERBB2 at 10 uM by microplate scintillation counting.
For test [5], the target named is T1, Serine/threonine-protein kinase DCLK2 (Homo sapiens) (UniProt Q8N568).
T1 sequence (whole entry): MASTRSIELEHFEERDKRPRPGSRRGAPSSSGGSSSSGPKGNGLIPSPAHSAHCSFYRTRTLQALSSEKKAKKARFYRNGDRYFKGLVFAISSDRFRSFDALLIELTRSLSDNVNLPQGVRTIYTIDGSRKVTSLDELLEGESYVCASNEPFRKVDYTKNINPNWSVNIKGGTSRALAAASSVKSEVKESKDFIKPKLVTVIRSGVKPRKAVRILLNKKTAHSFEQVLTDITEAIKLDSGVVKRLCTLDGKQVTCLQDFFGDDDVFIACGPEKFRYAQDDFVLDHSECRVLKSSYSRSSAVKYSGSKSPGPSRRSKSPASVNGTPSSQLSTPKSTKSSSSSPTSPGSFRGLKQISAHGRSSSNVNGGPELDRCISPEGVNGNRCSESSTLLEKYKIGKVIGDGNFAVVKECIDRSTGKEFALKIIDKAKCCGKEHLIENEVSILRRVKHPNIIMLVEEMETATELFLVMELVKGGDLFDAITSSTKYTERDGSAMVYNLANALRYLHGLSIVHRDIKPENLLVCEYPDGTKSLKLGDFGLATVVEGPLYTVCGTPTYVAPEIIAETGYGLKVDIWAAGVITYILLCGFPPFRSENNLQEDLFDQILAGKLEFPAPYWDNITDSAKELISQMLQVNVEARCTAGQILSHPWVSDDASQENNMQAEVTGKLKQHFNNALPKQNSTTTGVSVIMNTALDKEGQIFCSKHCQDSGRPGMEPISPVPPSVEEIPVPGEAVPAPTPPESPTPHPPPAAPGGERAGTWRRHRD
The test can be described thus: Residual activity of DCAMKL2 at 1 uM by microplate scintillation counting.

The target of test [6] is Cyclin-dependent kinase 4/cyclin D1 (Homo sapiens) (UniProt P11802+P24385). The test can be described thus: Residual activity of CDK4/Cyclin D1 at 0.1 uM by microplate scintillation counting. The class given is protein-complex assay.
Test [7] addresses T2, Ephrin type-B receptor 1 (Homo sapiens) (UniProt P54762).
T2 sequence (whole entry): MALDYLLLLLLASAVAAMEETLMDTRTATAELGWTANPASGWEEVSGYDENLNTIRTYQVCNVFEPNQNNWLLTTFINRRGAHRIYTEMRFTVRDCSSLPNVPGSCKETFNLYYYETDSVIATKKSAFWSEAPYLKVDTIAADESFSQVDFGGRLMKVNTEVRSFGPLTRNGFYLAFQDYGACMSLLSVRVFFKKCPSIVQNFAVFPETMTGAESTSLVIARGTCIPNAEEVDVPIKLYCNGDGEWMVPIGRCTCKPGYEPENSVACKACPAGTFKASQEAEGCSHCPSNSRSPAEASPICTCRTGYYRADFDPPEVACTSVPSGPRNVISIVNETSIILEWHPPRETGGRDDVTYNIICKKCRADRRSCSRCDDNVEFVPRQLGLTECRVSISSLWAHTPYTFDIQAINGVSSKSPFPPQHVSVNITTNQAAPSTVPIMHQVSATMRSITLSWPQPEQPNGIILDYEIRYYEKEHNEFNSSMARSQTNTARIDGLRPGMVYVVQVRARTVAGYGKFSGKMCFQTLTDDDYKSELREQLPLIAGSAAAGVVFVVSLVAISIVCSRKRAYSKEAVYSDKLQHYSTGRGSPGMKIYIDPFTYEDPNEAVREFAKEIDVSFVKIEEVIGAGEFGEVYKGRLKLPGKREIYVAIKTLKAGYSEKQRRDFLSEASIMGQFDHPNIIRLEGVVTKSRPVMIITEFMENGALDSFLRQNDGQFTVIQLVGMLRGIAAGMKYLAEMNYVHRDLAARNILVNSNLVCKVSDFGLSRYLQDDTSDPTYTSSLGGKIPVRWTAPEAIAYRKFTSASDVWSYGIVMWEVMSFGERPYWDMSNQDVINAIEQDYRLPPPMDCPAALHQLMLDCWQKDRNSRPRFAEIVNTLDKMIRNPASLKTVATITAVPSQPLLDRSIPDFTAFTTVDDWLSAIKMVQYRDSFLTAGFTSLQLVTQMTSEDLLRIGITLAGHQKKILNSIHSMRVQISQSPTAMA
The test can be described thus: Residual activity of EPHB1 at 0.1 uM by microplate scintillation counting.

The target of test [8] is Protein kinase C theta type (Homo sapiens) (UniProt Q04759). The test can be described thus: Residual activity of PKCtheta at 10 uM by microplate scintillation counting.
For test [9], the target named is Focal adhesion kinase 1 (Homo sapiens) (UniProt Q05397). The test can be described thus: Residual activity of FAK at 0.1 uM by microplate scintillation counting.
Test [10] has as its target T3, Serine/threonine-protein kinase Sgk2 (Homo sapiens) (UniProt Q9HBY8).
T3 sequence (whole entry): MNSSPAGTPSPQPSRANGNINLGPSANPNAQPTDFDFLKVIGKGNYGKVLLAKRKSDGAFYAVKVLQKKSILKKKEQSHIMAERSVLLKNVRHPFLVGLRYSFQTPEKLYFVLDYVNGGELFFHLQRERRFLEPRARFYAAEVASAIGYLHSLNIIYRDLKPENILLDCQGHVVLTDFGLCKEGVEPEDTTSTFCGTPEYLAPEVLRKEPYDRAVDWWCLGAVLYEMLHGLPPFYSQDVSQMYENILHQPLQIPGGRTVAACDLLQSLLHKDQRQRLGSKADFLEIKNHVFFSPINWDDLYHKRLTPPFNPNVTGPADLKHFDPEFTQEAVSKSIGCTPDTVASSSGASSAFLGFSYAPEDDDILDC
The test can be described thus: Residual activity of SGK2 at 1 uM by microplate scintillation counting.

For test [11], the target named is Angiopoietin-1 receptor (Homo sapiens, UniProt Q02763). The test can be described thus: Inhibition of TIE2 by microplate scintillation counting.
Test [12] deals with Insulin receptor (Homo sapiens) (UniProt P06213). The test can be described thus: Residual activity of INSR at 0.1 uM by microplate scintillation counting.
Test [13] addresses Mitogen-activated protein kinase kinase kinase 8 (Homo sapiens) (UniProt P41279). The test can be described thus: Residual activity of COT at 10 uM by microplate scintillation counting.

Chain of Calcium/calmodulin-dependent protein kinase kinase 2 (Homo sapiens) (Q96RR4 2-588 limits assumed): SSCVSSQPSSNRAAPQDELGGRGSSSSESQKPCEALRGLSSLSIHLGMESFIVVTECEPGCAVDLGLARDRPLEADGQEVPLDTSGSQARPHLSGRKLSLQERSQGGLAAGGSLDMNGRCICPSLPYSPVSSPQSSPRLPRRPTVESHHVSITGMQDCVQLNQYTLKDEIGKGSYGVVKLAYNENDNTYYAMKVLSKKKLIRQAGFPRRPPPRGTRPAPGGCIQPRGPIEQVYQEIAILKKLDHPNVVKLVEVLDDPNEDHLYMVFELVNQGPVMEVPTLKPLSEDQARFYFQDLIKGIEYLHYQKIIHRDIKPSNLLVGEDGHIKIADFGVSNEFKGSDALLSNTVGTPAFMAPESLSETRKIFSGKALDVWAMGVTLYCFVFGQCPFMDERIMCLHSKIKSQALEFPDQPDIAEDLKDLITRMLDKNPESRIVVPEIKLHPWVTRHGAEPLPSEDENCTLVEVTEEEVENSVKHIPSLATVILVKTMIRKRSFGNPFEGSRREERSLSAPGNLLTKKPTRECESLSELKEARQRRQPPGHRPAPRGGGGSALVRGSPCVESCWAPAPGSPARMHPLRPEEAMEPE
Chain of Protein kinase C theta type (Homo sapiens) (Q04759 whole entry, looked up): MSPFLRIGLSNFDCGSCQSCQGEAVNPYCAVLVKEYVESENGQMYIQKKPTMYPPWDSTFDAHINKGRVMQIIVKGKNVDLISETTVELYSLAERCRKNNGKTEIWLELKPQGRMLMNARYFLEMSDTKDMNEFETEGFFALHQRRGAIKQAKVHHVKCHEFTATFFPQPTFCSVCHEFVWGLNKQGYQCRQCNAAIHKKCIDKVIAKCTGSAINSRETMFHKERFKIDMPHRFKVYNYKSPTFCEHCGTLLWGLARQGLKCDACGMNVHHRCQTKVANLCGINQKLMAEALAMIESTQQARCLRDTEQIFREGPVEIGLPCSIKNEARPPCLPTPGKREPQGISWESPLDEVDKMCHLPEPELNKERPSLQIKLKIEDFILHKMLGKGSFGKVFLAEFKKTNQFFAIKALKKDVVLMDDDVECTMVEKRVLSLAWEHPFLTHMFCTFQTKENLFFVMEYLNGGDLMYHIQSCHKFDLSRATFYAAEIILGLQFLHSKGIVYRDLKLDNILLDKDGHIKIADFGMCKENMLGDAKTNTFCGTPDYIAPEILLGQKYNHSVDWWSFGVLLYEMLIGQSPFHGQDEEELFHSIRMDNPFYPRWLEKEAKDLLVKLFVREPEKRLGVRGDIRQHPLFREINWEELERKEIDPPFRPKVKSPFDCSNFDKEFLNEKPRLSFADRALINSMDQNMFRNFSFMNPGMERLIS
Chain of Angiopoietin-1 receptor (Q02763 whole entry): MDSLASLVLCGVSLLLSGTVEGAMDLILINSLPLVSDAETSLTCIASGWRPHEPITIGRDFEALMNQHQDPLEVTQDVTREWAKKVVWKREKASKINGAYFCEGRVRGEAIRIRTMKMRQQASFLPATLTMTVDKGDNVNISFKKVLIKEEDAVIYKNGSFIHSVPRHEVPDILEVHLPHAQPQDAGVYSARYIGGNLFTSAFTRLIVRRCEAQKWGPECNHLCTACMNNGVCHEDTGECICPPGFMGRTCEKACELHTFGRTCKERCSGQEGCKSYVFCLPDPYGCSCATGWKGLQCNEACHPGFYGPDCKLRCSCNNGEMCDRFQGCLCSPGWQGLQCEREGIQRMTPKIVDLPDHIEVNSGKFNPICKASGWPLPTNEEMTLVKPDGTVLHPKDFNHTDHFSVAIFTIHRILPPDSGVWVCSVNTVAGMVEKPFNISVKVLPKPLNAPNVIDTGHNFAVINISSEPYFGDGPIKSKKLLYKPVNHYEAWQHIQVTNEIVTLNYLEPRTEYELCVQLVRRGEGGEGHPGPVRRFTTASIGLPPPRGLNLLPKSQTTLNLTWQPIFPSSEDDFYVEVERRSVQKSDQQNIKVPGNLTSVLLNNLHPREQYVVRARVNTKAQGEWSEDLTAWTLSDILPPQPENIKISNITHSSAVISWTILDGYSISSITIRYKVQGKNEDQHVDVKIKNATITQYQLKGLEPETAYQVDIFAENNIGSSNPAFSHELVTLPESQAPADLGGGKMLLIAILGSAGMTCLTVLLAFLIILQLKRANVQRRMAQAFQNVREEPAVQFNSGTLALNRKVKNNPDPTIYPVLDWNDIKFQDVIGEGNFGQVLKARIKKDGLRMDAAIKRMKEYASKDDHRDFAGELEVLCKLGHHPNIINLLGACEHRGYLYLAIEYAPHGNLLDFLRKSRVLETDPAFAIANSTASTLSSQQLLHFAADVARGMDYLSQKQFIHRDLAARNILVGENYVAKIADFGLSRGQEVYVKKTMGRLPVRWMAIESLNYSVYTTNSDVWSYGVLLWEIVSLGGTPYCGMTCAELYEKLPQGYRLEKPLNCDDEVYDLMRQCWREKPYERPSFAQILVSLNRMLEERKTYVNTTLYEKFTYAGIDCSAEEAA
Chain of Focal adhesion kinase 1 (Homo sapiens) (Q05397 2-1052 limits assumed): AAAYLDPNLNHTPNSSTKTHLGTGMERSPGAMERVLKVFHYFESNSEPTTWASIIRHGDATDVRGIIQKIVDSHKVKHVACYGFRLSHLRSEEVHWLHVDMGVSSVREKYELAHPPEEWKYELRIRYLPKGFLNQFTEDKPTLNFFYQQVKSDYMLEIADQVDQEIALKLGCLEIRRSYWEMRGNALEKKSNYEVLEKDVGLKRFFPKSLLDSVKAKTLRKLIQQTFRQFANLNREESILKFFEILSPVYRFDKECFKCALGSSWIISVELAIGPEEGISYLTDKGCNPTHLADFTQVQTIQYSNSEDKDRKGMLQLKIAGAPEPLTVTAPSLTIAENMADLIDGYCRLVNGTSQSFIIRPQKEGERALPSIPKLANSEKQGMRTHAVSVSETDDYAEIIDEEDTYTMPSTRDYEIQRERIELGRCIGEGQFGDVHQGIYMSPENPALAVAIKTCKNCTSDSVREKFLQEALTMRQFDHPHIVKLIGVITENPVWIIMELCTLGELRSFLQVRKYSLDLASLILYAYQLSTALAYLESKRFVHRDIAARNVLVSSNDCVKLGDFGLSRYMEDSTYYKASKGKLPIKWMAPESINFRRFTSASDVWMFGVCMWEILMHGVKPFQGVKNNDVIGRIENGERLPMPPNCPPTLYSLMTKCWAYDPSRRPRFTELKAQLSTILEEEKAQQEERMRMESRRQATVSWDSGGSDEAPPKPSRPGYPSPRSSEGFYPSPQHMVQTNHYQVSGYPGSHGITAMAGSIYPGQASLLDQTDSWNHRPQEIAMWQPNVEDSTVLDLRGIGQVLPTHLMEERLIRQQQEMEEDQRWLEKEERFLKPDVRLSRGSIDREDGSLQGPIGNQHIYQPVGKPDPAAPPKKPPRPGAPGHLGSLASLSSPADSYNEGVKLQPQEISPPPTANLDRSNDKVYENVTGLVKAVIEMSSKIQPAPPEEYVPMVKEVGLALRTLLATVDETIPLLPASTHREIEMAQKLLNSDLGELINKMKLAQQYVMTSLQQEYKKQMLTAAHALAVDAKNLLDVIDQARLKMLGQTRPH
Chain of Mitogen-activated protein kinase kinase kinase 8 (Homo sapiens) (P41279 whole entry): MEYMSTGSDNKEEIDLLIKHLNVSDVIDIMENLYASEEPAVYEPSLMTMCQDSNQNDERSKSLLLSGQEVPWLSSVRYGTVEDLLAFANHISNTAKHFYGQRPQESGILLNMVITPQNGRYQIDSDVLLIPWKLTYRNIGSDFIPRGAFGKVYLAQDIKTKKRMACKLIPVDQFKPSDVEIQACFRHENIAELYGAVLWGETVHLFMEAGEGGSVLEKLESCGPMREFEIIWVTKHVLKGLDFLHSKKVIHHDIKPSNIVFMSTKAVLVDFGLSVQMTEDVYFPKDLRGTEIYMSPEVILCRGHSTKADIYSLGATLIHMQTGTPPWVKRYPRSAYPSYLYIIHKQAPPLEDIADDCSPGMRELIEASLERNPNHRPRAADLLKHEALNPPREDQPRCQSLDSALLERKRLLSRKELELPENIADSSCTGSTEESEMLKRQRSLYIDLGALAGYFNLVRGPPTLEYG
Chain of Serine/threonine-protein kinase PAK 1 (Homo sapiens) (Q13153 whole entry): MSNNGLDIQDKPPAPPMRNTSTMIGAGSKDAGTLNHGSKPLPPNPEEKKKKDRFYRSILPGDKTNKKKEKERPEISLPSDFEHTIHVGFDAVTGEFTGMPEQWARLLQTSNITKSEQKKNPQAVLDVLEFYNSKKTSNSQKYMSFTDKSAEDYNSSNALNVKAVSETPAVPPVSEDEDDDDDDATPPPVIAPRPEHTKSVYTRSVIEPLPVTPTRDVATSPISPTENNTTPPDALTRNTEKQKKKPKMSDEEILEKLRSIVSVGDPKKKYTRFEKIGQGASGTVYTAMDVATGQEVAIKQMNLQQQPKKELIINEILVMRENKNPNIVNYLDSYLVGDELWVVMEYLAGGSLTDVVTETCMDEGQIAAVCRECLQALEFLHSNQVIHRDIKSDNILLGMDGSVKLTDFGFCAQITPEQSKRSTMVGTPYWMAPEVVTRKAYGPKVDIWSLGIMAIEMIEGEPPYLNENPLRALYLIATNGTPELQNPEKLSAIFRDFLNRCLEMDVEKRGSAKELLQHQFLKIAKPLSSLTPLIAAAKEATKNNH

One may read the IC50 as the point on the concentration scale where inhibition reaches its midpoint. A higher IC50 goes with lower potency. Regarding `COc1cc2c(Oc3ccc(-c4nc5ccccc5s4)cc3)ncnc2cc1OCCCN1CCN(C)CC1`, the residual activity in test [1] was 97%; in test [2], 86%; in [3], 109%; in test [4] it was 91%; in test [5] it was 80%; in test [6], 96%. Moreover, the residual activity is 118% in test [7]; 96% in [8]; 94% in test [9]; 95% in test [10]; 100% in [12]; 115% in [13]. Besides, in [11], it took 44 nM to reach half-maximal inhibition (IC50).
Take `COc1cc2c(Oc3ccc(-c4nc5ccccc5s4)cc3)ncnc2cc1OCCCN1CCCC1`: the residual activity worked out at 99% in test [1]; 86% in test [2]; 97% in [3]; 110% in test [4]; 71% in [5]; 98% in test [6]. For the same compound, the residual activity in test [7] turned out to be 99%; in test [8], 64%; in test [9] it was 99%; in [10] it was 93%; in test [12] it was 96%; in test [13] it was 96%. Also, the half-inhibitory concentration (IC50) in [11] is 72 nM.
As for `COc1cc2c(Oc3ccc(-c4nc5ccccc5s4)cc3F)ncnc2cc1OCCCN1CCN(C)CC1`, the residual activity in test [1] stood at 93%; in test [2], 90%; in [3], 112%; in test [4] it was 62%; in test [5], 76%; in test [6] it was 98%. In addition, the residual activity in test [7] worked out at 123%; in test [8], 87%; in test [9] it was 98%; in test [10], 93%; in test [12], 96%; in test [13], 94%. Also, in test [11], the half-maximal inhibitory concentration (IC50) came out at 88 nM.
